Patent US9169254B2, “Spiroimidazolone derivative” (Chugai Seiyaku Kabushiki Kaisha, priority 2009, dated 2015)

Target: T1, human PTH1 receptor (Homo sapiens, UniProt Q03431)
T1 sequence (Q03431 27-593): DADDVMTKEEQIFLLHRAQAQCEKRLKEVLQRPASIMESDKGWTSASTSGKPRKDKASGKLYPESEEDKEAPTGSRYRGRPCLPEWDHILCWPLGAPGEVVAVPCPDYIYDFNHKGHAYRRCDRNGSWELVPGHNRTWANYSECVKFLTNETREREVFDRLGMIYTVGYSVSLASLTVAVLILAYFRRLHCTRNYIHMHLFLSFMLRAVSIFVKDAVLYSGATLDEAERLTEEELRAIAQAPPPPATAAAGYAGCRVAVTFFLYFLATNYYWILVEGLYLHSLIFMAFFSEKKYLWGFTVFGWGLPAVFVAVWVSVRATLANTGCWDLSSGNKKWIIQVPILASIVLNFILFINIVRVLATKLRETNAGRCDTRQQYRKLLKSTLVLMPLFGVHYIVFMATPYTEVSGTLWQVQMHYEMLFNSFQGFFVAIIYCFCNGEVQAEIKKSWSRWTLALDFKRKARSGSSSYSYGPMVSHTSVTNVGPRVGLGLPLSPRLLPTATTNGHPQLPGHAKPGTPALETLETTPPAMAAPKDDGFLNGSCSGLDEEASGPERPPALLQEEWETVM
Assay: In vitro cAMP signal activity in HKRK-B7 cells (LLC-PK1 cells overexpressing the human PTH1 receptor)
Type: cell-based
Settings: HKRK-B7 cells; compound at 1×10^−3 M; cAMP produced as percentage of that produced by hPTH(1-34) at 100 nM

First: Cc1cc(C(=O)O)cc(C)c1CCS(=O)(=O)N1CCC2(CC1)N=C(C1CCC(CCC(F)(F)F)CC1)NC2=O (stereo not drawn) [Compound 768, 3,5-dimethyl-4-(2-{4-oxo-2-[4-(3,3,3-trifluoro-propyl)-cyclohexyl]-1,3,8-triaza-spiro[4.5]dec-1-ene-8-sulfonyl}-ethyl)-benzoic acid]
Second: CC(=O)NNC(=O)c1cc(C)c(CCS(=O)(=O)N2CCC3(CC2)N=C(C2CCC(CCC(F)(F)F)CC2)NC3=O)c(C)c1 (stereo not drawn) [Compound 769, 3,5-dimethyl-4-(2-{4-oxo-2-[4-(3,3,3-trifluoro-propyl)-cyclohexyl]-1,3,8-triaza-spiro[4.5]dec-1-ene-8-sulfonyl}-ethyl)-benzoic acid N′-acetyl-hydrazide]
The “cAMP production activity (%)” value of the first is higher: 79% for the first, 55% for the second.

Going from Cc1cc(CO)cc(C)c1CCS(=O)(=O)N1CCC2(CC1)N=C(C1CCC(CCC(F)(F)F)CC1)NC2=O (stereo not drawn) [Compound 770, 8-[2-(4-hydroxymethyl-2,6-dimethyl-phenyl)-ethanesulfonyl]-2-[4-(3,3,3-trifluoro-propyl)-cyclohexyl]-1,3,8-triaza-spiro[4.5]dec-1-en-4-one] to CC(=O)NCc1cc(C)c(CCS(=O)(=O)N2CCC3(CC2)N=C(C2CCC(CCC(F)(F)F)CC2)NC3=O)c(C)c1 (stereo not drawn) [Compound 772, N-[3,5-dimethyl-4-(2-{4-oxo-2-[4-(3,3,3-trifluoro-propyl)-cyclohexyl]-1,3,8-triaza-spiro[4.5]dec-1-ene-8-sulfonyl}-ethyl)-benzyl]-acetamide], the “cAMP production activity (%)” value falls from 105% to 69%.

First: Cc1cc(N2CCCCC2=O)cc(C)c1CCS(=O)(=O)N1CCC2(CC1)N=C(C1CCC(C)CC1)NC2=O (stereo not drawn) [Compound 771, 8-{2-[2,6-dimethyl-4-(2-oxo-piperidin-1-yl)-phenyl]-ethanesulfonyl}-2-(4-methyl-cyclohexyl)-1,3,8-triaza-spiro[4.5]dec-1-en-4-one]
Second: Cc1cc(N2CCC(=O)NC2=O)cc(C)c1CCS(=O)(=O)N1CCC2(CC1)N=C(C1CCC(C)CC1)NC2=O (stereo not drawn) [Compound 786, 1-(3,5-dimethyl-4-{2-[2-(4-methyl-cyclohexyl)-4-oxo-1,3,8-triaza-spiro[4.5]dec-1-ene-8-sulfonyl]-ethyl}-phenyl)-dihydro-pyrimidine-2,4-dione]
The “cAMP production activity (%)” value of the first is higher: 80% for the first, 57% for the second.

First: CC(=O)NCc1cc(C)c(CCS(=O)(=O)N2CCC3(CC2)N=C(C2CCC(C)CC2)NC3=O)c(C)c1 (stereo not drawn) [Compound 773, N-(3,5-dimethyl-4-{2-[2-(4-methyl-cyclohexyl)-4-oxo-1,3,8-triaza-spiro[4.5]dec-1-ene-8-sulfonyl]-ethyl}-benzyl)-acetamide]
Second: CC(=O)N(C)Cc1cc(C)c(CCS(=O)(=O)N2CCC3(CC2)N=C(C2CCC(C)CC2)NC3=O)c(C)c1 (stereo not drawn) [Compound 785, N-(3,5-dimethyl-4-{2-[2-(4-methyl-cyclohexyl)-4-oxo-1,3,8-triaza-spiro[4.5]dec-1-ene-8-sulfonyl]-ethyl}-benzyl)-N-methyl-acetamide]
The “cAMP production activity (%)” value of the first is lower: 86% for the first, 92% for the second.

Going from Cc1cc(CN2C(=O)CNC2=O)cc(C)c1CCS(=O)(=O)N1CCC2(CC1)N=C(C1CCC(CCC(F)(F)F)CC1)NC2=O (stereo not drawn) [Compound 774, 3-[3,5-dimethyl-4-(2-{4-oxo-2-[4-(3,3,3-trifluoro-propyl)-cyclohexyl]-1,3,8-triaza-spiro[4.5]dec-1-ene-8-sulfonyl}-ethyl)-benzyl]-imidazolidine-2,4-dione] to Cc1cc(CN2C(=O)CCC2=O)cc(C)c1CCS(=O)(=O)N1CCC2(CC1)N=C(C1CCC(CCC(F)(F)F)CC1)NC2=O (stereo not drawn) [Compound 777, 1-[3,5-dimethyl-4-(2-{4-oxo-2-[4-(3,3,3-trifluoro-propyl)-cyclohexyl]-1,3,8-triaza-spiro[4.5]dec-1-ene-8-sulfonyl}-ethyl)-benzyl]-pyrrolidine-2,5-dione], the “cAMP production activity (%)” value falls from 80% to 71%.

Compared with Cc1cc(CN2C(=O)NC(C)(C)C2=O)cc(C)c1CCS(=O)(=O)N1CCC2(CC1)N=C(C1CCC(CCC(F)(F)F)CC1)NC2=O (stereo not drawn) [Compound 775, 3-[3,5-dimethyl-4-(2-{4-oxo-2-[4-(3,3,3-trifluoro-propyl)-cyclohexyl]-1,3,8-triaza-spiro[4.5]dec-1-ene-8-sulfonyl}-ethyl)-benzyl]-5,5-dimethyl-imidazolidine-2,4-dione], Cc1cc(CN2C(=O)NC(C)(C)C2=O)cc(C)c1CCS(=O)(=O)N1CCC2(CC1)N=C(C1CCC(C)CC1)NC2=O (stereo not drawn) [Compound 780, 3-(3,5-dimethyl-4-{2-[2-(4-methyl-cyclohexyl)-4-oxo-1,3,8-triaza-spiro[4.5]dec-1-ene-8-sulfonyl]-ethyl}-benzyl)-5,5-dimethyl-imidazolidine-2,4-dione] is lower in “cAMP production activity (%)” value: 70% for the first, 48% for the second.

Going from Cc1cc(CN2CCCC2=O)cc(C)c1CCS(=O)(=O)N1CCC2(CC1)N=C(C1CCC(CCC(F)(F)F)CC1)NC2=O (stereo not drawn) [Compound 776, 8-{2-[2,6-dimethyl-4-(2-oxo-pyrrolidin-1-ylmethyl)-phenyl]-ethanesulfonyl}-2-[4-(3,3,3-trifluoro-propyl)-cyclohexyl]-1,3,8-triaza-spiro[4.5]dec-1-en-4-one] to Cc1cc(CN2CCCC2=O)cc(C)c1CCS(=O)(=O)N1CCC2(CC1)N=C(C1CCC(C)CC1)NC2=O (stereo not drawn) [Compound 781, 8-{2-[2,6-dimethyl-4-(2-oxo-pyrrolidin-1-ylmethyl)-phenyl]-ethanesulfonyl}-2-(4-methyl-cyclohexyl)-1,3,8-triaza-spiro[4.5]dec-1-en-4-one], the “cAMP production activity (%)” value falls from 79% to 30%.

Going from Cc1cc(N2C(=O)CNC2=O)c(C)cc1CCS(=O)(=O)N1CCC2(CC1)N=C(C1CCC(C)CC1)NC2=O (stereo not drawn) [Compound 778, 3-(2,5-dimethyl-4-{2-[2-(4-methyl-cyclohexyl)-4-oxo-1,3,8-triaza-spiro[4.5]dec-1-ene-8-sulfonyl]-ethyl}-phenyl)-imidazolidine-2,4-dione] to Cc1cc(CN2C(=O)CNC2=O)cc(C)c1CCS(=O)(=O)N1CCC2(CC1)N=C(C1CCC(C)CC1)NC2=O (stereo not drawn) [Compound 779, 3-(3,5-dimethyl-4-{2-[2-(4-methyl-cyclohexyl)-4-oxo-1,3,8-triaza-spiro[4.5]dec-1-ene-8-sulfonyl]-ethyl}-benzyl)-imidazolidine-2,4-dione], the “cAMP production activity (%)” value falls from 57% to 53%.

First: Cc1cc(CN2C(=O)CCC2=O)cc(C)c1CCS(=O)(=O)N1CCC2(CC1)N=C(C1CCC(C)CC1)NC2=O (stereo not drawn) [Compound 782, 1-(3,5-dimethyl-4-{2-[2-(4-methyl-cyclohexyl)-4-oxo-1,3,8-triaza-spiro[4.5]dec-1-ene-8-sulfonyl]-ethyl}-benzyl)-pyrrolidine-2,5-dione]
Second: CC(=O)N(C)c1c(C)cc(CCS(=O)(=O)N2CCC3(CC2)N=C(C2CCC(C)CC2)NC3=O)cc1C (stereo not drawn) [Compound 783, N-(2,6-dimethyl-4-{2-[2-(4-methyl-cyclohexyl)-4-oxo-1,3,8-triaza-spiro[4.5]dec-1-ene-8-sulfonyl]-ethyl}-phenyl)-N-methyl-acetamide]
The “cAMP production activity (%)” value of the first is lower: 14% for the first, 50% for the second.

Compared with CC(=O)N(C)Cc1cc(C)c(CCS(=O)(=O)N2CCC3(CC2)N=C(C2CCC(CCC(F)(F)F)CC2)NC3=O)c(C)c1 (stereo not drawn) [Compound 784, N-[3,5-dimethyl-4-(2-{4-oxo-2-[4-(3,3,3-trifluoro-propyl)-cyclohexyl]-1,3,8-triaza-spiro[4.5]dec-1-ene-8-sulfonyl}-ethyl)-benzyl]-N-methyl-acetamide], Cc1cc(C(=O)N(C)N(C)C)cc(C)c1CCS(=O)(=O)N1CCC2(CC1)N=C(C1CCC(CCC(F)(F)F)CC1)NC2=O (stereo not drawn) [Compound 787, 3,5-dimethyl-4-(2-{4-oxo-2-[4-(3,3,3-trifluoro-propyl)-cyclohexyl]-1,3,8-triaza-spiro[4.5]dec-1-ene-8-sulfonyl}-ethyl)-benzoic acid trimethylhydrazide] is lower in “cAMP production activity (%)” value: 84% for the first, 81% for the second.

First: O=C1NC(CCCCCCCC(F)(F)C(F)(F)F)=NC12CCN(S(=O)(=O)CCc1cccc3c1ccn3C[C@H](O)CO)CC2 [Compound 788, 8-{2-[1-((S)-2,3-dihydroxy-propyl)-1H-indol-4-yl]-ethanesulfonyl}-2-(8,8,9,9,9-pentafluoro-nonyl)-1,3,8-triaza-spiro[4.5]dec-1-en-4-one]
Second: O=C1NC(CCCCCCCCC(F)(F)F)=NC12CCN(S(=O)(=O)CCc1cccc3c1ccn3C[C@H](O)CO)CC2 [Compound 789, 8-{2-[1-((S)-2,3-dihydroxy-propyl)-1H-indol-4-yl]-ethanesulfonyl}-2-(9,9,9-trifluoro-nonyl)-1,3,8-triaza-spiro[4.5]dec-1-en-4-one]
The “cAMP production activity (%)” value of the first is lower: 142% for the first, 157% for the second.

Going from CCCCCCCCCC1=NC2(CCN(S(=O)(=O)CCc3ccc(N4C(=O)CNC4=O)cc3C)CC2)C(=O)N1 [Compound 790, 3-{3-methyl-4-[2-(2-nonyl-4-oxo-1,3,8-triaza-spiro[4.5]dec-1-ene-8-sulfonyl)-ethyl]-phenyl}-imidazolidine-2,4-dione] to Cc1cc2c(ccn2C[C@@H](O)CO)c(C)c1CCS(=O)(=O)N1CCC2(CC1)N=C(C1CCC(CCC(F)(F)F)CC1)NC2=O (stereo partly drawn) [Compound 791, 8-{2-[1-((R)-2,3-dihydroxy-propyl)-4,6-dimethyl-1H-indol-5-yl]-ethanesulfonyl}-2-[4-(3,3,3-trifluoro-propyl)-cyclohexyl]-1,3,8-triaza-spiro[4.5]dec-1-en-4-one], the “cAMP production activity (%)” value falls from 88% to 6.1%.
